Assay results taken from patent publication US20140100184A1, “SELECTIVE INHIBITORS OF HISTONE […] DOT1L” (BAYLOR COLLEGE OF MEDICINE, priority 2012, published 2014).
Where a name gives a salt, the structure may show the parent alone. Read-outs that look alike come from different tables or passages of the source.

Experiments:
[1] = target: T1, G9a (Mus musculus, UniProt Q9Z148); assay: Methyltransferase inhibition assay, G9a
T1 sequence (Q9Z148 1-1263): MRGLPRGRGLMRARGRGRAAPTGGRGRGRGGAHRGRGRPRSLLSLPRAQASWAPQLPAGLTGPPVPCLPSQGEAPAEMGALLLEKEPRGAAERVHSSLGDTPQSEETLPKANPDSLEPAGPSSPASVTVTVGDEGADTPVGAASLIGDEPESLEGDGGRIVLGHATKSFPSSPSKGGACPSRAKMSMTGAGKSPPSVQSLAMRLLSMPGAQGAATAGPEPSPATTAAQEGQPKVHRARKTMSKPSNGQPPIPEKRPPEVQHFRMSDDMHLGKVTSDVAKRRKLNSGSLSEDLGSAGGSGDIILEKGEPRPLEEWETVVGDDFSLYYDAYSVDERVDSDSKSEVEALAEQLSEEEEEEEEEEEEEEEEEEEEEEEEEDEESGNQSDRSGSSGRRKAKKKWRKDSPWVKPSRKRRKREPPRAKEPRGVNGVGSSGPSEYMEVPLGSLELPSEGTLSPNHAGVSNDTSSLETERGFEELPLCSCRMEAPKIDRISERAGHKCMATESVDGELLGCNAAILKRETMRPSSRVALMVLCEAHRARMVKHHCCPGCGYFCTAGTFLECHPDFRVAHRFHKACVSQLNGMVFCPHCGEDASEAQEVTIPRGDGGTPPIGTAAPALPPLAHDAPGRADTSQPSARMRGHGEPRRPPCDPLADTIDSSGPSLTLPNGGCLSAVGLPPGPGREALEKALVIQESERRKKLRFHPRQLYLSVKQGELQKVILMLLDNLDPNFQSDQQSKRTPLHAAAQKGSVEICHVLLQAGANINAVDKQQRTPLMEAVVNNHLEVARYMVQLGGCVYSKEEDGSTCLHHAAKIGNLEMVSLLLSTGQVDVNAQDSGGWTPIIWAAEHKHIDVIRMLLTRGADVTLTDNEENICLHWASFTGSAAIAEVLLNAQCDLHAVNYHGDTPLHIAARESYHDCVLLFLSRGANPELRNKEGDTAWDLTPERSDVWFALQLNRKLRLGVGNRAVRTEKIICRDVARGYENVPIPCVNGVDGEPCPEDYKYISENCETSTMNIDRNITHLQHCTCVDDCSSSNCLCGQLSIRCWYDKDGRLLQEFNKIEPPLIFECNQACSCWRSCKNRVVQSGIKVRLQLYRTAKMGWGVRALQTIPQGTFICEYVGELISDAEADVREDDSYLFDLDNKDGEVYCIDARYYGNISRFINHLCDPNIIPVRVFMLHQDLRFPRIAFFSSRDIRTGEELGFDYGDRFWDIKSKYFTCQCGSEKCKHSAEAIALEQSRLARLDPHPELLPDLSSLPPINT

[2] = target: T2, SUV39H1 (Homo sapiens, UniProt O43463); assay: biochemical; parameters: purchased BPS Biosciences (San Diego, Calif.)
T2 sequence (O43463 1-412): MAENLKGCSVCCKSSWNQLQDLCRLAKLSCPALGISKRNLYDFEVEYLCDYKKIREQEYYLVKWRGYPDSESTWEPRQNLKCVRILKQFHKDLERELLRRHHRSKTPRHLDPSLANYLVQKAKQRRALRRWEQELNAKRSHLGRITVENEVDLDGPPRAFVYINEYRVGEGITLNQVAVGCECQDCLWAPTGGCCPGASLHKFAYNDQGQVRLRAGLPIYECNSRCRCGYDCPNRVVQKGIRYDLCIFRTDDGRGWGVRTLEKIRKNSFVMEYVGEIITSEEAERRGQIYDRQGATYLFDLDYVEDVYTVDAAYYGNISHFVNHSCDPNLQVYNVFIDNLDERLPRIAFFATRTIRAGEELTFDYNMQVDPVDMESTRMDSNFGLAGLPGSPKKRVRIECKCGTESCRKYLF

[3] = system: CARM1, PRMT1, G9a and SUV39H1; assay: Inhibition of other methyltransferases, summarised over the panel; conditions: for activity against other methyltransferases: in words
[4] = target: T3, CARM1 (Homo sapiens, UniProt Q86X55); assay: biochemical; parameters: GST (from pGEX-KG vector) (N); made in house; host or cells: E. coli (as for hDOT1L); plasmid pGEX-KG-CARM1 from Dr. Qin Feng
T3 sequence (Q86X55 1-608): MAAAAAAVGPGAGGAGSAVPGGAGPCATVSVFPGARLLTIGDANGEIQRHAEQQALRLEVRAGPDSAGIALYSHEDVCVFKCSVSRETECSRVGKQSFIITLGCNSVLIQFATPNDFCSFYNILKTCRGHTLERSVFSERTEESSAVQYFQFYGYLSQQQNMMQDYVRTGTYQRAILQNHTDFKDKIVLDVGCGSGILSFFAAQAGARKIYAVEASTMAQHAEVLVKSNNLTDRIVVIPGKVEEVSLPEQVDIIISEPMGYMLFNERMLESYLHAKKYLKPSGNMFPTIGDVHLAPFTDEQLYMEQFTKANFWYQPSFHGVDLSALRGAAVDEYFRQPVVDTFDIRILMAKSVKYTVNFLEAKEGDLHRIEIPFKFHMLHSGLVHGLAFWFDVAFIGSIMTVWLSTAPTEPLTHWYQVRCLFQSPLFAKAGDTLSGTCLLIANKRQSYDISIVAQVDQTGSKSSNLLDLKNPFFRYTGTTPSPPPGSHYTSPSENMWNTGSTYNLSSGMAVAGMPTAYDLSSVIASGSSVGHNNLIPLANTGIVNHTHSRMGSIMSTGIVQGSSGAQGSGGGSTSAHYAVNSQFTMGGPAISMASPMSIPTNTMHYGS

[5] = target: T4, PRMT1 (Homo sapiens, UniProt Q99873); assay: Methyltransferase inhibition assay, PRMT1; type: biochemical; parameters: purchased BPS Biosciences (San Diego, Calif.)
[6] = target: T5, DOT1L (Homo sapiens, UniProt Q8TEK3); assay: Determination of Km values of SAM and substrate, DOT1L; type: biochemical; conditions: 30° C., 10 min, pH=8.0
T5 construct: Human DOT1 L(1-472) was expressed and purified as described in the literature; GST (N, cleaved yes); made in house; host or cells: E. coli BL21-CodonPlus (Agilent), plasmid pGEX-KG-hDOT1L(1-472)

[7] = target: T3, CARM1; conditions: read-out: Km value of SAM for CARM1
[8] = target: T1, G9a; conditions: read-out: Km value of SAM for G9a
[9] = target: T2, SUV39H1; conditions: read-out: Km value of SAM for SUV39H1
[10] = target: T5, DOT1L; conditions: literature values; read-out: Km value for DOT1L, recent publication; cited from earlier work
[11] = target: T4, PRMT1; conditions: read-out: Km value of SAM for PRMT1; from the literature; cited from earlier work

T4 sequence (Q99873 whole entry): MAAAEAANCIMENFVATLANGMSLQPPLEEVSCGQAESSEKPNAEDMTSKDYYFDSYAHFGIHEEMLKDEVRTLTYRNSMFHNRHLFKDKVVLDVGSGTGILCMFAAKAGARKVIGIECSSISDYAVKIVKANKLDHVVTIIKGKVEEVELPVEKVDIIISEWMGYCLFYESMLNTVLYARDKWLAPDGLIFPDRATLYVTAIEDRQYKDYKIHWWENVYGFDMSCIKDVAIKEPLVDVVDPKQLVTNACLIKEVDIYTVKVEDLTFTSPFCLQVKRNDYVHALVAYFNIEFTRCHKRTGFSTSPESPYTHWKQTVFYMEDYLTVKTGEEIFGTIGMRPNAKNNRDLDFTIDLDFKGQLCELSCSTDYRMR
T5 sequence (Q8TEK3 1-472): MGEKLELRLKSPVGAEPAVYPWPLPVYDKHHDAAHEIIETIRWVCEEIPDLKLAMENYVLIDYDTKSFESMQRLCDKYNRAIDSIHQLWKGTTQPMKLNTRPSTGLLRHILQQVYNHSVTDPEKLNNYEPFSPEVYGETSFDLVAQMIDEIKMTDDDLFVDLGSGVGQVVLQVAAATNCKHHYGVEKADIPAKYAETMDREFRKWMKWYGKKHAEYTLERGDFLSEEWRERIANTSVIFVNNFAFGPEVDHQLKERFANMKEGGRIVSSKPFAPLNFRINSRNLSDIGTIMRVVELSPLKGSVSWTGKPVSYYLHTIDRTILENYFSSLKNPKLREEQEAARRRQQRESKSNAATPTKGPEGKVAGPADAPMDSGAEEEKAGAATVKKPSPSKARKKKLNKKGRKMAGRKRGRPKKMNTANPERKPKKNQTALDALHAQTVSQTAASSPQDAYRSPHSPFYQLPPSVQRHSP

With CNc1ncnc2c1ncn2[C@@H]1O[C@H](CN(CCI)CCC[C@H](N)C(=O)O)C(O)[C@@H]1O (stereo partly drawn) [Compound 5, N^δ-[5′-(N^6-Methyl-adenosyl)]-N^δ-(2-iodoethyl)-(S)-2,5-diaminopentanoic acid hydrochloride] as the molecule, how does the IC50 [1] read?
The IC50 was > 100 µM.

What about the IC50 [2] of the same molecule?
Its IC50 is > 100 µM.

And the “activity against other methyltransferases” value [3]?
Its value is “essentially inactive”.

And the IC50 [4]?
The IC50 was > 100 µM.

Which IC50 [1] does the source give for N[C@@H](CCCN(CCI)C[C@H]1O[C@@H](n2cnc3c(NCc4ccccc4)ncnc32)[C@@H](O)C1O)C(=O)O (stereo partly drawn) [Compound 6, N^δ-[5′-(N^6-Benzyl-adenosyl)]-N^δ-(2-iodoethyl)-(S)-2,5-diaminopentanoic acid hydrochloride] here?
The IC50 was > 100 µM.

What about the IC50 [5] of the same molecule?
The IC50 was > 100 µM.

And the IC50 [2]?
The IC50 was > 100 µM.

And the “activity against other methyltransferases” value [3]?
Its value is “essentially inactive”.

What about the IC50 [4] of the same molecule?
The IC50 was > 100 µM.

For Nc1ncnc2c1ncn2[C@@H]1O[C@H](CN(CCI)CCC[C@H](N)C(=O)O)C(O)[C@@H]1O (stereo partly drawn) [Compound 4, N^δ-(5′-Adenosyl)-N^δ-(2-iodoethyl)-(S)-2,5-diaminopentanoic-acid hydrochloride], which IC50 [1] is on record?
The IC50 was 1.8 µM.

And the IC50 [2]?
Its IC50 is > 100 µM.

What about the IC50 ([3]; read-out: IC50 values on other methyltransferases, span over the four enzymes) of the same molecule?
The IC50 was ≥ 1.1 µM.

What about the IC50 [4] of the same molecule?
The IC50 was 1.1 µM.

Which results are given for C[S+](CC[C@H](N)C(=O)O)C[C@H]1O[C@@H](n2cnc3c(N)ncnc32)[C@H](O)[C@@H]1O (stereo partly drawn) [SAM, S-(5′-adenosyl)-L-methionine]?
Km [6]: 0.76 µM; Km [7]: 1.6 µM; Km [8]: 14.1 µM; Km [9]: 27.9 µM; Km [10]: 0.65 µM; Km [11]: 6 µM

Which results are given for Nc1ncnc2c1ncn2[C@@H]1O[C@H](CN(CCI)CC[C@H](N)C(=O)O)C(O)[C@@H]1O (stereo partly drawn) [Compound 3, N^γ-(5′-Adenosyl)-N^γ-(2-iodoethyl)-(S)-2,4-diaminobutyric acid hydrochloride]?
IC50 [1]: > 100 µM; IC50 [2]: > 100 µM; IC50 [4]: 46.4 µM

What does the source list for N[C@@H](CCSC[C@H]1O[C@@H](n2cnc3c(NCc4ccccc4)ncnc32)[C@H](O)[C@@H]1O)C(=O)O [Compound 2, S-(N^6-Benzyl-adenosyl)-L-homocysteine]?
Ki [1]: > 100 µM; activity on G9a [1]: inactive; Ki [2]: > 100 µM; Ki [4]: 18 µM

With CNc1ncnc2c1ncn2[C@@H]1O[C@H](CSCC[C@H](N)C(=O)O)[C@@H](O)[C@H]1O [Compound 1, S-(N^6-Methyl-adenosyl)-L-homocysteine] as the molecule, how does the Ki [1] read?
Its Ki is > 100 µM.

For Nc1ncnc2c1ncn2[C@@H]1O[C@H](CSCC[C@H](N)C(=O)O)[C@@H](O)[C@H]1O [SAH, S-(5′-adenosyl)-L-homocysteine, reference compound], which Ki [1] is on record?
Its Ki is 0.57 µM.
